Consider four compounds from article PMC7827406, “Structure–Activity Relationship (SAR) Study of Spautin-1 to Entail the Discovery of Novel NEK4 Inhibitors” (International Journal of Molecular Sciences, 2021).

What all share (assay): biochemical
Common to all, as to set-up: Eurofins KinaseProfiler full panel at Km ATP, residual kinase activity (%) relative to DMSO

In one test the target is T1, Abl(T315I)(h) (Homo sapiens, UniProt P00519, T315I).
T1 construct: gene ABL1
Summed up:
(§1)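 Compounds screened at 10 µM in radiometric kinase activity assays at Km ATP, reported as remaining kinase activity (%). A KINOMEscan competition-binding screen at 10 µM measured DNA-tagged kinase retained on immobilized active-site ligand by qPCR.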

Another test deals with T2, CHK2(I157T)(h) (Homo sapiens, UniProt O96017, I157T).
T2 construct: gene CHEK2
Summed up:
as §1

The next test concerns the target T3, CK1γ3(h) (Homo sapiens, UniProt Q9Y6M4).
T3 construct: gene CSNK1G3
Summed up: as §1

Another test has as its target T4, DNA-PK(h) (Homo sapiens, UniProt P78527).
T4 construct: gene PRKDC
Summed up: as §1

The next test deals with T5, MKK4(m) (Mus musculus, UniProt P47809).
T5 construct: gene Map2k4
T5 sequence (P47809 1-397): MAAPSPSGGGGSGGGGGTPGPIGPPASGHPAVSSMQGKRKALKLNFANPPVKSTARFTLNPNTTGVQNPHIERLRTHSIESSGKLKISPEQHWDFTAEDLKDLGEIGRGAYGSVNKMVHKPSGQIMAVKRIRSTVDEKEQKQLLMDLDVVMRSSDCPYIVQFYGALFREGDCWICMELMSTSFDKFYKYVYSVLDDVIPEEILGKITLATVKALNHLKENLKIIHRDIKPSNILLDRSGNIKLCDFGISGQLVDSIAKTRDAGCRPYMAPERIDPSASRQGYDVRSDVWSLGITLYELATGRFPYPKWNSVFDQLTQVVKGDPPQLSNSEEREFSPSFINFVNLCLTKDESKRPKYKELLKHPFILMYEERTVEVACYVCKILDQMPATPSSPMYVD
Summed up:
as §1

The target in another test is T6, PRAK(h) (Homo sapiens, UniProt Q8IW41).
T6 construct: gene MAPKAPK5
T6 sequence (Q8IW41 1-473): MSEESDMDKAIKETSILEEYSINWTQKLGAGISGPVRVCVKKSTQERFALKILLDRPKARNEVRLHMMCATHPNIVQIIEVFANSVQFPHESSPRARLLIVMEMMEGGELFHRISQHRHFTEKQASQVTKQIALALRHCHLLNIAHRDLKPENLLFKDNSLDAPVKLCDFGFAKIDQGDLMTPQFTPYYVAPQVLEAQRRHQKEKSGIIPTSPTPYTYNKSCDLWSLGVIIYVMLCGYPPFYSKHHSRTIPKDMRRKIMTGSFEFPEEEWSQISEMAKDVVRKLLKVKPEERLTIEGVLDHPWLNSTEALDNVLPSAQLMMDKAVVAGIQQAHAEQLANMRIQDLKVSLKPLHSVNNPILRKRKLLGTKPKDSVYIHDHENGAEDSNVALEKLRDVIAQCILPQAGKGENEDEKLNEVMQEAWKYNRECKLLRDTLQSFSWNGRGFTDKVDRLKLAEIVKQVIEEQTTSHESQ
Summed up: as §1

For another test, the target named is T7, TBK1(h) (Homo sapiens, UniProt Q9UHD2).
T7 sequence (Q9UHD2 1-729): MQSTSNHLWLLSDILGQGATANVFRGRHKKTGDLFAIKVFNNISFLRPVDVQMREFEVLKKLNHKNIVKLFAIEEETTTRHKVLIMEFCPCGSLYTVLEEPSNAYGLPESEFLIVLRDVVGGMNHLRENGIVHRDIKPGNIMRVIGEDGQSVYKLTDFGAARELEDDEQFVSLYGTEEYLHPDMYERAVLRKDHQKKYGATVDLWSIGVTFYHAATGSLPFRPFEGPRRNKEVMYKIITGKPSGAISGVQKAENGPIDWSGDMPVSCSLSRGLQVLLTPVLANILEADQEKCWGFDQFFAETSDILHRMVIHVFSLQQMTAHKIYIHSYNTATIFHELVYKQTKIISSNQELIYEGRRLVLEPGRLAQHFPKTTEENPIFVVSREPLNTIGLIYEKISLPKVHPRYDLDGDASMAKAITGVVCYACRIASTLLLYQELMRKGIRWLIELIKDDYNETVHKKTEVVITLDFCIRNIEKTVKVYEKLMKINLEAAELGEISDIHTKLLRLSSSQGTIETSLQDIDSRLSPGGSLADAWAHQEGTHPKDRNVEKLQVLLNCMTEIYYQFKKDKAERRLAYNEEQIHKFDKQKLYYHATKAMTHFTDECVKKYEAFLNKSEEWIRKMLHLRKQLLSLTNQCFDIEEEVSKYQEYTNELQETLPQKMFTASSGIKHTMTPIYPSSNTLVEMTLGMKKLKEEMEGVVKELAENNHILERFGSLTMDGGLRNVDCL
Summed up: as §1

Setting [1] is: read-out: Residual activity (%) Spautin-1 5aa.
Setting [2] is: read-out: Residual activity (%) 5as.
[3] abbreviates: read-out: Residual activity (%) 5at.
Setting [4] is: read-out: Residual activity (%) 5ay.

Like-named read-outs stand apart in the source and are kept apart here.

T2 sequence (O96017 whole entry I157T): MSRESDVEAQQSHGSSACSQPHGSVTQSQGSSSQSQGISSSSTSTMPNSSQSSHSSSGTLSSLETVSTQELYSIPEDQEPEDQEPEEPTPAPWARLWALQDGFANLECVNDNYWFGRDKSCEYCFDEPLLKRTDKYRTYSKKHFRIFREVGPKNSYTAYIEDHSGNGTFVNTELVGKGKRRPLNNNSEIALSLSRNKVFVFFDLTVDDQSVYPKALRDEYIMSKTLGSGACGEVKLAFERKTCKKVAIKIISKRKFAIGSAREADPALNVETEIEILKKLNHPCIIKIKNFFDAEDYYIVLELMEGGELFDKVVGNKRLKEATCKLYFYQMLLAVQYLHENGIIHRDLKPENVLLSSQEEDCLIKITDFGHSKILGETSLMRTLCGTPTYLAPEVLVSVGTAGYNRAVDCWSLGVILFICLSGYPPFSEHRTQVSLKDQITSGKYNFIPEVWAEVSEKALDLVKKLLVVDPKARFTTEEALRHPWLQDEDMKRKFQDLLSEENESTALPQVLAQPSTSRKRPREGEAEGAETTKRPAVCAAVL
T4 sequence (P78527 whole entry): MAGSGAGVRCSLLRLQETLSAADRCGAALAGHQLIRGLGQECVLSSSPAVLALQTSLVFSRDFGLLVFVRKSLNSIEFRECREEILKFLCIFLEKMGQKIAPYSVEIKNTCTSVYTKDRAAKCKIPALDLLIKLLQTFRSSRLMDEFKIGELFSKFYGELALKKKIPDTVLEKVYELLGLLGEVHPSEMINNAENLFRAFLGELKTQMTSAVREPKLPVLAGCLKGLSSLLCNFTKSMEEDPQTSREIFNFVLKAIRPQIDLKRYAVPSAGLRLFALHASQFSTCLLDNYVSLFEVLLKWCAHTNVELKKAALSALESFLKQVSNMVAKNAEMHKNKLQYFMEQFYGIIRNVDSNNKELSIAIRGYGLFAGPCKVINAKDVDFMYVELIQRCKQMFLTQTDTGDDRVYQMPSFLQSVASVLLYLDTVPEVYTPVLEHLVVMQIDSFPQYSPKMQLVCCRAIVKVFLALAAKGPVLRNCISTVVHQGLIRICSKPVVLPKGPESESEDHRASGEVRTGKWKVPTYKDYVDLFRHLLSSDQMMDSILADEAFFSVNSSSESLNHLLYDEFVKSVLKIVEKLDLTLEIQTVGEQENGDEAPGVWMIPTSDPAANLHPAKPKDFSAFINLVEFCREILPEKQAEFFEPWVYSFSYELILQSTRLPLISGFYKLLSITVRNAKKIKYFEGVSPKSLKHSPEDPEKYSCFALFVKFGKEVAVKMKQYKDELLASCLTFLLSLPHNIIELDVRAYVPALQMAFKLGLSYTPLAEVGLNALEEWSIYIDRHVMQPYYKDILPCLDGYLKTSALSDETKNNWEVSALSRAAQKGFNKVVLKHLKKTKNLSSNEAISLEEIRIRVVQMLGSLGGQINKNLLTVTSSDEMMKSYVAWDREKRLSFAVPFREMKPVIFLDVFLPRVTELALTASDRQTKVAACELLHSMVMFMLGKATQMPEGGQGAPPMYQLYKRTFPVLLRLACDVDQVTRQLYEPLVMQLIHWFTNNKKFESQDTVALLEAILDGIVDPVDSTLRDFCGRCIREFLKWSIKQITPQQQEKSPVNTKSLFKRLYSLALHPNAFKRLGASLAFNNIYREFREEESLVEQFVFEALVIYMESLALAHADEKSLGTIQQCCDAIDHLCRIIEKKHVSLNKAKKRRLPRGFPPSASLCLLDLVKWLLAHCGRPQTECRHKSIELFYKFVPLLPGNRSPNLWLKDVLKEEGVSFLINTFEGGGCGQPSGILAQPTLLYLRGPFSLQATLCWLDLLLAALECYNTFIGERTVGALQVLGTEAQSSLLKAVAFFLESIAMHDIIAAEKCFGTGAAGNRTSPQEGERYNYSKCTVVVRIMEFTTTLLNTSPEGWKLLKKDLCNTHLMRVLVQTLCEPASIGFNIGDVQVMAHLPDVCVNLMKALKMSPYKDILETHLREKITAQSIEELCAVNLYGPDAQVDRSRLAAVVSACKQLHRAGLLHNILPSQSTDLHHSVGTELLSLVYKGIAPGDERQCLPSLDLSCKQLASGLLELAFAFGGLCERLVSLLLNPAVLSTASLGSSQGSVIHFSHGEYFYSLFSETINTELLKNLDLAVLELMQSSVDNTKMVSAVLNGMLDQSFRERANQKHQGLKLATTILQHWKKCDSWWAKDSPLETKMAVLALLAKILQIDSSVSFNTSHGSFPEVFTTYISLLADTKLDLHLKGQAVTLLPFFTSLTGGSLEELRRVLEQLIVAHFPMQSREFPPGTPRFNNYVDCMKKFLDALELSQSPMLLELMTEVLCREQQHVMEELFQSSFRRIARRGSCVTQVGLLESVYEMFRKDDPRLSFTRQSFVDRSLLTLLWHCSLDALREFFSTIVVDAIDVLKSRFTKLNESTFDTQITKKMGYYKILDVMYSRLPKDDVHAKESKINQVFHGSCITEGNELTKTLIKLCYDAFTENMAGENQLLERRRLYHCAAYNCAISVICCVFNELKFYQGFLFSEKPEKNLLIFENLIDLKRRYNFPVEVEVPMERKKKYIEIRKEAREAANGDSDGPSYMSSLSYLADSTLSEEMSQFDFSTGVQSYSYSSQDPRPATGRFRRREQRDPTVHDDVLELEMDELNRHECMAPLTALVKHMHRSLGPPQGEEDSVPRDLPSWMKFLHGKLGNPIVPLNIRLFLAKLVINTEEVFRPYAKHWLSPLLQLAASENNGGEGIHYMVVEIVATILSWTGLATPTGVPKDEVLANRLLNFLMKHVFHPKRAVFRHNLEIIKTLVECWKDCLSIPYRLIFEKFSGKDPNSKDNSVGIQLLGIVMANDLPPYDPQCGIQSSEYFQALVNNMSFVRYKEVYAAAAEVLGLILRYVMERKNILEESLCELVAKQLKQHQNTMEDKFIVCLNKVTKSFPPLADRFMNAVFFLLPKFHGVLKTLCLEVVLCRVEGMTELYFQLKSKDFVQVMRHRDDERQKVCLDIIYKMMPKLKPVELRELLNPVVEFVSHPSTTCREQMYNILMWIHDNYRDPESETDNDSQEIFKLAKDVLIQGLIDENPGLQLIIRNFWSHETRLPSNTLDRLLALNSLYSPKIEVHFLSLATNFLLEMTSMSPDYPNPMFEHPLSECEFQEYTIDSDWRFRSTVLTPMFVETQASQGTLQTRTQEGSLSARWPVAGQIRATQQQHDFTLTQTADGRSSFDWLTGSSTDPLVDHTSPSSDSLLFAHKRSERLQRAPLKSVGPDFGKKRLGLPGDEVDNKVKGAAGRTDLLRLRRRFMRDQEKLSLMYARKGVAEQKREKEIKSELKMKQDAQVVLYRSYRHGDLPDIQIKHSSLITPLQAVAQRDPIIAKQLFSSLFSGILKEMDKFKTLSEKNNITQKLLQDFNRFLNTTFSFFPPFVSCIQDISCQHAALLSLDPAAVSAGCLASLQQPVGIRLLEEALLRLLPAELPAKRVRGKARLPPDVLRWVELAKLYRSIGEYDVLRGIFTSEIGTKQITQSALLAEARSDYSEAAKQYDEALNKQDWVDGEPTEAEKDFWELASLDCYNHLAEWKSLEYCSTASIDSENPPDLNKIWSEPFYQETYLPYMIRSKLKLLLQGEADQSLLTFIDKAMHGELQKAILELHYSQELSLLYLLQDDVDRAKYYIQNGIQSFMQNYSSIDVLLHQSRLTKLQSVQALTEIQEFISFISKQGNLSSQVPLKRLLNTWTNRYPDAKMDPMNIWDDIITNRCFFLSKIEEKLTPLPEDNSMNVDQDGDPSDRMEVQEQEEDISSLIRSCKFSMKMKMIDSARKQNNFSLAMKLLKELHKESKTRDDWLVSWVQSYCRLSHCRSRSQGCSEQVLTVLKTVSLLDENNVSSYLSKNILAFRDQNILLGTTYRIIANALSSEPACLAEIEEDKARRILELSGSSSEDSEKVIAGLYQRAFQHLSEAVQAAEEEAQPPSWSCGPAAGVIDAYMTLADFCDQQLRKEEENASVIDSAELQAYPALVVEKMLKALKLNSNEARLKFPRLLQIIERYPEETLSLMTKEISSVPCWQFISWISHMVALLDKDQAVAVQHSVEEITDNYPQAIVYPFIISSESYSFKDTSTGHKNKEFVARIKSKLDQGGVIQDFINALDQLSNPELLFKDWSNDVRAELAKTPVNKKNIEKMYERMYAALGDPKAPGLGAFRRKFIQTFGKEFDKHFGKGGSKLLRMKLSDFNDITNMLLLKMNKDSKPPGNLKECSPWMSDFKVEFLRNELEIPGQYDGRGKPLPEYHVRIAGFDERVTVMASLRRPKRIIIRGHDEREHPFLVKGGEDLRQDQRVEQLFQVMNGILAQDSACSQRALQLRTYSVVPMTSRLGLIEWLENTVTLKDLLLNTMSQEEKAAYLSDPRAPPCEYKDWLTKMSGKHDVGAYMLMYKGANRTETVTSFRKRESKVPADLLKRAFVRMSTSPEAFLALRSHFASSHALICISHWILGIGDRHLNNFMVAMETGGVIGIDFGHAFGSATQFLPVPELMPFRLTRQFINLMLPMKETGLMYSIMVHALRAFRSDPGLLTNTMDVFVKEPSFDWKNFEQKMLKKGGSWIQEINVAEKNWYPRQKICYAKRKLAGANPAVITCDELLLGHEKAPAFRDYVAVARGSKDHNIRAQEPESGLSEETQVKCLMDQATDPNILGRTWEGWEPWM
T3 sequence (Q9Y6M4 whole entry): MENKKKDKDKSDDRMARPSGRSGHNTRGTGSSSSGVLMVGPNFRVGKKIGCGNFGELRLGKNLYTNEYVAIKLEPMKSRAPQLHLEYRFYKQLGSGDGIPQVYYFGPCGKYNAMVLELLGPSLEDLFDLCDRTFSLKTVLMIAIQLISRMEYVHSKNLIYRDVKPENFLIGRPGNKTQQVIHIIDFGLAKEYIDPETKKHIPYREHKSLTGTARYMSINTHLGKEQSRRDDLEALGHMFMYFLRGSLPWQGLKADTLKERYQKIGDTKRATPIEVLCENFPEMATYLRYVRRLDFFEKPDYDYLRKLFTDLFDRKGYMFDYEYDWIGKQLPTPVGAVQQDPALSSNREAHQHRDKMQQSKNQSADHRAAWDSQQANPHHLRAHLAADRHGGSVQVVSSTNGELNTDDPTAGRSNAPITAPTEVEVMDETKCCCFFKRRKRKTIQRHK

For the compound `Fc1ccc(CNc2ncnc3ccc(F)cc23)cc1` [5aa, 6-Fluoro-N-(4-fluorobenzyl)-4-Quinazolinamine], the remaining activity at 10 µM was 73% on Abl(T315I)(h) (setting [1]); 88% at CHK2(I157T)(h) (setting [1]); 81% on CK1γ3(h) (setting [1]); 89% at DNA-PK(h) (setting [1]); 105% at MKK4(m) (setting [1]); 107% at PRAK(h) (setting [1]). The remaining activity at 10 µM on TBK1(h) (setting [1]) came out at 126%.
In the case of `Fc1ccc(CCNc2ncnc3ccc(F)cc23)cc1` [5as, 6-Fluoro-N-[2-(4-Fluorophenyl)Ethyl]-4-Quinazolinamine], the remaining activity at 10 µM at Abl(T315I)(h) (setting [2]) is 101%; at CHK2(I157T)(h) (setting [2]), 105%; on CK1γ3(h) (setting [2]), 87%; on DNA-PK(h) (setting [2]) it was 74%; at MKK4(m) (setting [2]) it was 112%; on PRAK(h) (setting [2]) it was 108%. Besides, at TBK1(h) (setting [2]), the remaining activity at 10 µM turned out to be 108%.
For the compound `Fc1ccc2ncnc(NCCc3ccc(Cl)cc3)c2c1` [5at, N-[2-(4-Chlorophenyl)Ethyl]-6-Fluoro-4-Quinazolinamine], the remaining activity at 10 µM at Abl(T315I)(h) (setting [3]) came to 80%; on CHK2(I157T)(h) (setting [3]), 99%; at CK1γ3(h) (setting [3]) it was 73%; on DNA-PK(h) (setting [3]), 85%; on MKK4(m) (setting [3]), 118%; at PRAK(h) (setting [3]), 91%. The remaining activity at 10 µM at TBK1(h) (setting [3]) amounted to 108%.
For the compound `COc1ccc2ncnc(Nc3cccc(F)c3)c2c1` [5ay, N-(3-Fluorophenyl)-6-Methoxy-4-Quinazolinamine], the remaining activity at 10 µM amounted to 91% on Abl(T315I)(h) (setting [4]); 91% on CHK2(I157T)(h) (setting [4]); 83% at CK1γ3(h) (setting [4]); 72% at DNA-PK(h) (setting [4]); 110% on MKK4(m) (setting [4]); 102% on PRAK(h) (setting [4]). The remaining activity at 10 µM on TBK1(h) (setting [4]) is 117%.
